Like-named read-outs stand apart in the source and are kept apart here. Each block holds one compound with its values, some of them ahead of it.
Test: Measurement of LogP values by HPLC on reversed phase columns (EEC directive 79/831 Annex V.A8), methods [a], [b], [c]
Format: physicochemical
Description: Measurement of Log P values as provided herein was performed according to EEC directive 79/831 Annex V.A8 by HPLC (High Performance Liquid Chromatography) on reversed phase columns with the following methods: • ^[a]
If more than one Log P value is available within the same method, all the values are given and separated by “+”.
Lambda-max-values were determined using UV-spectra from 200 nm to 400 nm and the peak values of the chromatographic signals

[1] = method [a]: LC-UV, acidic range, 0.1% formic acid in water and acetonitrile, Table 3, compounds of formula (1)
[2] = method [a]: LC-UV, acidic range, 0.1% formic acid in water and acetonitrile, Table 17, compounds of formula (10)
[3] = method [a]: LC-UV, acidic range, 0.1% formic acid in water and acetonitrile, Table 15, compounds of formula (9)
[4] = method [a], Table 19, compounds of formula (12), two values joined by & in some cells
[5] = method [a]: LC-UV, acidic range, 0.1% formic acid in water and acetonitrile, Table 7, compounds of formula (3)
[6] = method [a], Table 9, compounds of formula (4)
[7] = method [a]: LC-UV, acidic range, 0.1% formic acid in water and acetonitrile, Table 11, compounds of formula (6)

SMILES: Cc1c(Cl)nnc(Oc2cccc(C3CC3)c2F)c1C(=O)O [1-02, 6-chloro-3-(3-cyclopropyl-2-fluoro-phenoxy)-5-methyl-pyridazine-4-carboxylic acid]
chromatographic logP [1]: 1.84

SMILES: Cc1ccc(OCC(CON2C(=O)c3ccccc3C2=O)NC(=O)OC(C)(C)C)c(C)c1 (racemic) [2-13, tert-butyl N-[rac-1-[(2,4-dimethylphenoxy)methyl]-2-(1,3-dioxoisoindolin-2-yl)oxy-ethyl]carbamate]
chromatographic logP (method [a]: LC-UV, acidic range, 0.1% formic acid in water and acetonitrile, Table 5, compounds of formula (2)): 4.51

SMILES: Cc1ccc(CC(CCl)NC(=O)c2cc(Cl)nnc2Oc2cccc(C(F)(F)F)c2)c(C)c1 (centres unmarked) [21-01, 6-chloro-N-[1-(chloromethyl)-2-(2,4-dimethylphenyl)ethyl]-3-[3-(trifluoro-methyl)phenoxy]pyridazine-4-carboxamide]
chromatographic logP (method [a], Table 33, compounds of formula (21)): 5

LogP [2]: 1.91^[a]
SMILES: NC(=NO)c1cc(Cl)nnc1Oc1cccc(C(F)F)c1F [10-09]

SMILES: N#Cc1cc(Cl)nnc1Oc1cccc(C(F)(F)F)c1 [9-03, 6-chloro-3-[3-(trifluoromethyl)phenoxy]pyridazine-4-carbonitrile]
chromatographic logP [3]: 3.25

SMILES: Cc1cc(C(N)=NOCC(=O)c2ccc(Cl)cc2)c(Oc2cccc(C(F)(F)F)c2)nn1 [12-03, N′-[2-(4-chlorophenyl)-2-oxo-ethoxy]-6-methyl-3-[3-(trifluoro-methyl)phenoxy]pyridazine-4-carboxamidine]
chromatographic logP [4]: 3.42

LogP [2]: 2.00^[a]
SMILES: NC(=NO)c1cc(Cl)nnc1Oc1cccc(Cl)c1 [10-04]

chromatographic logP (reversed phase HPLC column, method [a]: LC-UV, acidic range, 0.1% formic acid in water and acetonitrile, Table 5, compounds of formula (2)): 1.7
SMILES: Cc1ccc(OCC(N)CON2C(=O)c3ccccc3C2=O)c(C)c1 (racemic) [2-12, 2-[rac-2-amino-3-(2,4-dimethylphenoxy)propoxy]isoindoline-1,3-dione 2,2,2-trifluoroacetate]

SMILES: Cc1ccc(CC(CON2C(=O)c3ccccc3C2=O)NC(=O)c2cc(Cl)nnc2Oc2cccc(C(F)(F)F)c2)c(C)c1 (racemic) [3-16, 6-chloro-N-[rac-1-[(2,4-dimethylphenyl)methyl]-2-(1,3-dioxoisoindolin-2-yl)oxy-ethyl]-3-[3-(trifluoromethyl)phenoxy]pyridazine-4-carboxamide]
chromatographic logP [5]: 5

LogP [1]: 2.33^[a]
SMILES: CON(C)C(=O)c1cc(C)nnc1Oc1cccc(C(F)(F)F)c1 [1-03]

SMILES: C=CCON=C(N)c1cc(C)nnc1Oc1cccc(C(F)(F)F)c1 [13-01, N′-allyloxy-6-methyl-3-[3-(trifluoromethyl)phenoxy]pyridazine-4-carboxamidine]
chromatographic logP (method [a]: LC-UV, acidic range, 0.1% formic acid in water and acetonitrile, Table 21, compounds of formula (13)): 2.88

SMILES: O=Cc1cc(Cl)nnc1Oc1cccc(C(F)(F)F)c1 [16-01, 6-chloro-3-[3-(trifluoromethyl)phenoxy]pyridazine-4-carbaldehyde]
chromatographic logP (method [a]: LC-UV, acidic range, 0.1% formic acid in water and acetonitrile, Table 25, compound of formula (16)): 2.04

SMILES: Cc1cc(C(N)=NO)c(Oc2cccc(C(F)(F)F)c2)nn1 [10-02, N′-hydroxy-6-methyl-3-[3-(trifluoromethyl)phenoxy]pyridazine-4-carboxamidine]
chromatographic logP [2]: 1.69

LogP [3]: 2.75^[a]
SMILES: COc1cccc(Oc2nnc(Cl)cc2C#N)c1 [9-08]

SMILES: Cc1ccc(CC(CON)NC(=O)c2cc(Cl)nnc2Oc2cccc(C(F)(F)F)c2)c(C)c1 (racemic) [4-17, 6-chloro-N-[rac-1-(aminooxymethyl)-2-(2,4-dimethylphenyl)ethyl]-3-[3-(trifluoro-methyl)phenoxy]pyridazine-4-carboxamide]
chromatographic logP [6]: 3.37

SMILES: Cc1ccc(CC(CON)NC(=O)c2cc(Cl)nnc2Cl)c(C)c1 (racemic) [6-02, 3,6-dichloro-N-[rac-1-(aminooxymethyl)-2-(2,4-dimethylphenyl)ethyl]pyridazine-4-carboxamide]
chromatographic logP [7]: 1.93

LogP [2]: 2.21^[a]
SMILES: NC(=NO)c1cc(Cl)nnc1Oc1cccc(Br)c1F [10-05]

SMILES: Cc1cc(C#N)c(Oc2cccc(C(F)(F)F)c2)nn1 [9-02, 6-methyl-3-[3-(trifluoromethyl)phenoxy]pyridazine-4-carbonitrile]
chromatographic logP [3]: 2.84

SMILES: O/N=C/c1cc(Cl)nnc1Oc1cccc(C(F)(F)F)c1 [17-01, 6-chloro-3-[3-(trifluoromethyl)phenoxy]pyridazine-4-carbaldehyde oxime]
chromatographic logP (reversed phase HPLC column, method [a]: LC-UV, acidic range, 0.1% formic acid in water and acetonitrile, Table 27, compound of formula (17)): 2.88

SMILES: Cc1ccc(OCC(CON2C(=O)c3ccccc3C2=O)NC(=O)c2cc(C)nnc2Oc2cccc(C(F)(F)F)c2)c(C)c1 (racemic) [3-33, 6-methyl-N-[rac-1-[(2,4-dimethylphenoxy)methyl]-2-(1,3-dioxoisoindolin-2-yl)oxy-ethyl]-3-[3-(trifluoromethyl)phenoxy]pyridazine-4-carboxamide]
chromatographic logP [5]: 4.56

SMILES: Cc1ccc(CC(CCl)NC(=NO)c2cc(Cl)nnc2Oc2cccc(C(F)(F)F)c2)c(C)c1 (centres unmarked) [20-01, 6-chloro-N-[1-(chloromethyl)-2-(2,4-dimethylphenyl)ethyl]-N′-hydroxy-3-[3-(trifluoromethyl)phenoxy]pyridazine-4-carboxamidine]
chromatographic logP (method [a], Table 29, compounds of formula (20), read-out: Log P): 4.34

SMILES: Cc1cc(C2=NOCC(O)N2)c(Oc2cccc(C(F)(F)F)c2)nn1 (racemic) [14-01, rac-3-[6-methyl-3-[3-(trifluoromethyl)phenoxy]pyridazin-4-yl]-5,6-dihydro-4H-1,2,4-oxadiazin-5-ol]
chromatographic logP (method [a]: LC-UV, acidic range, 0.1% formic acid in water and acetonitrile, Table 23, compounds of formula (14)): 1.59

LogP [2]: 2.34^[a]
SMILES: NC(=NO)c1cc(Cl)nnc1Oc1cccc(C2CC2)c1F [10-07]

SMILES: Cc1ccc(CC2CON=C(c3cc(Cl)nnc3Cl)N2)c(C)c1 (racemic) [7-01, rac-3-(3,6-dichloropyridazin-4-yl)-5-[(2,4-dimethylphenyl)methyl]-5,6-dihydro-4H-1,2,4-oxadiazine]
chromatographic logP (method [a]: LC-UV, acidic range, 0.1% formic acid in water and acetonitrile, Table 13, compounds of formula (7)): 2.98

LogP [2]: 2.19^[a]
SMILES: NC(=NO)c1cc(Cl)nnc1Oc1cccc(C2CC2)c1 [10-08]

SMILES: Cc1ccc(OCC(CON)NC(=O)c2cc(C)nnc2Oc2cccc(C(F)(F)F)c2)c(C)c1 (racemic) [4-33, 6-methyl-N-[rac-1-(aminooxymethyl)-2-(2,4-dimethylphenoxy)ethyl]-3-[3-(trifluoromethyl)phenoxy]pyridazine-4-carboxamide]
chromatographic logP [6]: 3.13

chromatographic logP (reversed phase HPLC column, method [a]: LC-UV, acidic range, 0.1% formic acid in water and acetonitrile, Table 3, compounds of formula (1)): 2.9
SMILES: CON(C)C(=O)c1cc(Cl)nnc1Oc1cccc(C(F)(F)F)c1 [1-07, 6-chloro-N-methoxy-N-methyl-3-[3-(trifluoromethyl)phenoxy]pyridazine-4-carboxamide]

SMILES: COc1ccc(C(=O)C(F)(F)ON=C(N)c2cc(C)nnc2Oc2cccc(C(F)(F)F)c2)cc1 [12-14, N′-[1,1-difluoro-2-(4-methoxyphenyl)-2-oxo-ethoxy]-6-methyl-3-[3-(trifluoro-methyl)phenoxy]pyridazine-4-carboxamidine]
chromatographic logP [4]: 3.13

SMILES: Cc1ccc(CC(CON2C(=O)c3ccccc3C2=O)NC(=O)c2cc(Cl)nnc2Cl)c(C)c1 (racemic) [6-01, 3,6-dichloro-N-[rac-1-[(2,4-dimethylphenyl)methyl]-2-(1,3-dioxoisoindolin-2-yl)oxy-ethyl]pyridazine-4-carboxamide]
chromatographic logP [7]: 3.72

— US12501900B2, “Heterocyclyl pyridazine as fungicidal compounds” (Bayer Aktiengesellschaft, priority 2018, dated 2025)
